Data: patent US4218453A, “N-Substituted hexahydro-6-canthinones for treating cardio-circulatory, cerebrovascular, and respiratory dysfunction” (priority 1976, dated 1980)

Experiments:
[1] = system: Charles River stock mice; test: Hypobaric anoxia test on mice (survival time); assay type: in vivo; conditions: for activity relative to vincamine: comparison on the basis of fractions of LD50
Procedure: Charles River stock mice of the same sex, weighting about 20±2 g are shared into three lots of 10 animals each. The lots 1 and 2 comprise treated animals, i.e. those having received either a substance to be tested or vincamine, together with solvent, at 1 ml/100 g of body weight. The third lot comprises control animals i.e. those having only received solvent at 1 ml/100 g of body weight.
The compounds examined were administered by intragastric route 15 minutes before the experiment. The doses as applied correspond to 1/5, 1/10, 1/20 of the LD50 for the compounds of the invention and 1/5 of LD50 for vincamine.
The animals were placed in an atmosphere impoverished in oxygen by creating a partial vacuum (190 mm Hg, corresponding to 5.25% oxygen), in about 30 seconds.
The survival time of the mice was measured with a chronometer. Said time is increased by the agents capable of enhancing oxygenation of tissues and more particularly brain oxygenation.
The percentages of survival time increase with respect to the values obtained for the control animals are calculated.

[2] = Acute toxicity, intragastric route, mice (LD50, Lichtfield and Wilcoxon); conditions: mouse, in vivo, po
Procedure: The compounds of the invention and vincamine also were administered by intragastric route to Charles River stock mice. The lethal doses for 50% (LD50) were determined graphically according to the method of Lichtfield and Wilcoxon (J. Pharmacol. Exp. Therap. […], 96, 99).

## CN1CCc2c3n(c4c(O)cccc24)C(=O)CCC31 (stereo not drawn) [OC-332]
[1]; Table IV, 100 mg/kg or LD50/5
  Variation % (survival time increase vs control): 117%
[1]; Table IV, 100 mg/kg or LD50/5, control 35 (± 3)
  Survival time: 76 (± 1) sec.
[1]; at equally toxic dose
  effect relative to vincamine: about 1.5 times higher
[2]
  LD50: 527 mg/kg

## CCN1CCc2c3n(c4ccccc24)C(=O)CCC31 (stereo not drawn) [OC-331, 3-ethyl-1,2,3,3a,4,5-hexahydro-6-canthinone]
[1]; Table III, 1st experiment, 80 mg/kg or LD50/5
  Variation % (survival time increase vs control): 214%
[1]; Table III, 1st experiment, 80 mg/kg or LD50/5, control 39 (± 2)
  Survival time: 122 (± 1) sec.
[1]; Table III, 2nd experiment, 40 mg/kg or LD50/10
  Variation % (survival time increase vs control): 105%
[1]; Table III, 2nd experiment, 40 mg/kg or LD50/10, control 39 (± 1)
  Survival time: 80 (± 3) sec.
[1]; Table III, 3rd experiment, 20 mg/kg or LD50/20
  Variation % (survival time increase vs control): 75%
[1]; Table III, 3rd experiment, 20 mg/kg or LD50/20, control 39 (± 1)
  Survival time: 57 (± 4) sec.
[1]; at doses corresponding to 1/20 LD50 for mice (p.o.)
  effect compared with vincamine at 1/5 LD50: exerts an effect comparable to vincamine at 1/5 LD50
[1]
  activity relative to vincamine: about four times more active than vincamine
[2]; mice
  LD50: 411 mg/kg

## CN1CCc2c3n(c4ccccc24)C(=O)CCC31 (stereo not drawn) [OC-330]
[1]; Table II, 1st experiment, 60 mg/kg or LD50/5, intragastric 15 min before
  Variation % (survival time increase vs control): 212%
[1]; Table II, 1st experiment, 60 mg/kg or LD50/5, intragastric 15 min before, control 39 (± 2)
  Survival time: 122 (± 4) sec.
[1]; Table II, 2nd experiment, 30 mg/kg or LD50/5 (so in the source)
  Variation % (survival time increase vs control): 71%
[1]; Table II, 2nd experiment, 30 mg/kg or LD50/5 (so in the source), control 39 (± 3)
  Survival time: 67 (± 3) sec.
[1]; at doses corresponding to 1/10 LD50 for mice (p.o.)
  effect compared with vincamine at 1/5 LD50: exerts an effect whose intensity is comparable to vincamine at 1/5 LD50
[1]
  activity relative to vincamine: about two times more active than vincamine
[2]; mice
  LD50: 310 mg/kg

## CC[C@]12CCCN3CCc4c(n(c5ccccc45)[C@@](O)(C(=O)OC)C1)[C@@H]32 [Vincamine, vincamine, reference compound]
[1]; Table II, 1st experiment, vincamine 200 mg/kg, LD50/5
  Variation % (survival time increase vs control): 67%
[1]; Table II, 1st experiment, vincamine 200 mg/kg, LD50/5, control 39 (± 2)
  Survival time: 65 (± 1) sec.
[1]; Table II, 2nd experiment, vincamine 200 mg/kg or LD50/5
  Variation % (survival time increase vs control): 67%
[1]; Table II, 2nd experiment, vincamine 200 mg/kg or LD50/5, control 39 (± 3)
  Survival time: 65 (± 2) sec.
[1]; Table III, 1st experiment, vincamine 200 mg/kg or LD50/5
  Variation % (survival time increase vs control): 67%
[1]; Table III, 1st experiment, vincamine 200 mg/kg or LD50/5, control 39 (± 2)
  Survival time: 65 (± 3) sec.
[1]; Table III, 2nd experiment, vincamine 200 mg/kg or LD50/5
  Variation % (survival time increase vs control): 67%
[1]; Table III, 2nd experiment, vincamine 200 mg/kg or LD50/5, control 39 (± 1)
  Survival time: 65 (+ 1) sec.
[1]; Table III, 3rd experiment, vincamine 200 mg/kg or LD50/5
  Variation % (survival time increase vs control): 59%
[1]; Table III, 3rd experiment, vincamine 200 mg/kg or LD50/5, control 39 (± 1)
  Survival time: 52 (± 1) sec.
[1]; Table IV, vincamine 200 mg/kg or LD50/5
  Variation % (survival time increase vs control): 77%
[1]; Table IV, vincamine 200 mg/kg or LD50/5, control 35 (± 3)
  Survival time: 62 (± 4) sec.
[2]; mice
  LD50: 970 mg/kg
